Test system: wild type mice
Assay: two-bottle choice alcohol preference with fructokinase inhibitor
Format: in vivo
Settings: wild type mice on 10 percent alcohol vs water, fructokinase inhibitor administered for 4 weeks, FIG. 2G
From the text: FIG. 2C provides delta FosB expression and densitometry in nucleus accumbens (Nacc) of wild type mice exposed to 0%, 3%, 6% and 10% alcohol for 10 weeks. FIG. 2D includes delta FosB expression and densitometry in nucleus accumbens (Nacc) of wild type and fructokinase knockout mice exposed to 10% alcohol for 10 weeks. […] FIG. 2F provides evidence of conditioned place preference in wild type and fructokinase knockout mice injected alcohol (2 g/kg). Data represents preference shifts for the paired section after vs before conditioning (time spent in the paired chamber posttest-pretest). […] One Way ANOVA with Tukey post hoc analysis; n=5 mice per group. Further evidence that KHK may mediate alcohol preference is shown by a conditioned place preference study, in which mice are injected with either alcohol or saline then placed in a distinctly different section of the apparatus for 4 alcohol and 4 saline trials. The mice were then tested in an alcohol-free state to determine whether they preferred the section of the apparatus that was paired with alcohol. […] It was also determined that preference for alcohol could be blocked by administering a fructokinase inhibitor (i.e., osthol) for 4 weeks to wild type mice on 10 percent alcohol. […] Thus, these studies show the novel finding that blocking fructokinase can block the craving for alcohol.

Question: How did the “reduced preference for alcohol in a two bottle preference system” value turn out when COc1ccc2ccc(=O)oc2c1CC=C(C)C [osthol] was run?
Answer: 50%
